Values of other authors in patent US8357388B2, “Drug depot implant designs and methods of implantation” (Warsaw Orthopedic, Inc., priority 2006, dated 2013).

Tested on: PGE2 production
Conditions: in cell culture

COc1ccc2cc(CC(=O)O)ccc2c1 [6-methoxy-2-napthylacetic acid]
PGE2 production and local inflammation: suppress PGE2 production and local inflammation
